Like-named read-outs stand apart in the source and are kept apart here.
Tests used:
[1] = test system: SNU-398 cells; experiment: Caspase 3/7 assay in SNU-398 cells; format: cell-based, human; settings: SNU-398 after knockdown
From the text: FIGS. 25A-25G: Functional roles of SALL4 in HCC. (25A) qPCR analysis of relative SALL4A and SALL4B expression on SNU-398 cells four days post-transduction. Error bars indicate standard error of three replicates. (25B) Western blot analysis of SALL4 expression on SNU-398 cells four days post-transduction. (25C) MTS analysis of cell viability upon gene knockdown by scrambled control shRNA (Scr) or E5 shRNA targeting SALL4 (E5) on SNU-398 (left) or SNU-387 (right) cells. Error bars indicate standard error of three replicates. (25D) Cell counting assay using trypan blus stain. […] (25F) Effects of SALL4 gene knockdown on tumorigenecity of HuH-7 cells. Representative images of mice transplanted with HuH-7 cells infected with virus expressing scrambled shRNA or E5 shRNA (top).
To further characterize the effects of loss of SALL4 in HCC cells, more functional assays in SNU-398 cells, which express high SALL4, were carried out. […] Furthermore, increased apoptosis in SALL4-knockdown HCC cells was observed by assessing caspase activities. Increased caspase 3/7 activities was observed upon loss of SALL4 in SNU-398 HCC cells (FIG. 30D), as well as increased cleaved caspase 3 (FIG. 30E).

[2] = test system: SALL4; experiment: SALL4 RNA knock-down in primary AML cells (qRT-PCR); format: cell-based, human; settings: qRT-PCR normalized to GAPDH
From the text: FIG. 6: Down-regulation of SALL4 in primary AML led to cell death. (6A) Down-regulation of SALL4 in primary AML cells. The ability of shRNA constructs 7412 to knock down SALL4 mRNA in AML cells were confirmed by qRT-PCR with normalization to GAPDH. The expression of SALL4 RNA in AML cells that were infected with SALL4 shRNA (7412)-expressing retroviruses was reduced to 35% of those infected with scrambled pRS control vectors, a shRNA pRS against non-effective GFP sequence from OriGene Technologies, Inc., Rockville Md. (N=3, Error Bars: +/−SD). (6B) Increased apoptosis and cell death were observed via flow cytometry in AML cells upon SALL4 knock down by Annexin V/PI staining. Control scrambled shRNA-infected cells and SALL4 shRNA-infected cells were analyzed 24 to 48 h post transduction. Data were derived from four independent experiments. (6C-6F) Leukemia development in xenotransplant recipient mice. AML is defined as blast count more than 20% in peripheral blood and/or bone marrow with multiple organ involvements observed in recipient mice. Blasts were present in liver (6C, ×200), spleen (6D, ×200), and bone marrow (6E, ×200), and were human CD45 positive (6F). […]

[3] = test system: OV90; experiment: Peptide treatment of ovarian cancer cells; format: cell-based
Method: Mut-peptide: mutant peptide; WT-peptide: wild-type peptide.
To understand the mechanism(s) of SALL4 function(s), SALL4-associated proteins were identified by tandem mass spectrometry. Components of the Mi-2/nucleosome remodeling and deacetylase (NuRD) complex were found in SALL4-immunocomplexes along with HDAC activity in ESCs with endogenous SALL4 expression and 293T cells overexpressing SALL4. The SALL4-mediated transcriptional regulation was tested on one potential target gene: Phosphatase and Tensin Homolog (Pten). Pten was confirmed as SALL4 downstream targets by chromatin-immunoprecipitation (ChIP), and its expression level, when tested by quantitative reverse transcription polymerase chain reaction (qRT-PCR), was decreased in 293T cells overexpressing SALL4. […] A small peptide that can block the oncogenic role of SALL4 in repressing Pten has been generated.

Substance: CTATTTAGCCAAAGGCAAA (short hairpin RNA, chemistry and delivery not given here, further chemistry not given here) [E5 shRNA]
- caspase 3/7 activity (apoptosis) [1]: increase in apoptosis activity

Substance: GATGCCTTGAAACAAGCCAAGCTACCTCA (chemistry not given here) [compound 7412, SALL4 shRNA used in primary AML cells]
- SALL4 RNA expression relative to scrambled control [2]: 35%

Substance: H-MSRRKQAKPQHI-OH [wt peptide, MSRRKQAKPQHI]
- living cells / cell death [3]: decreased living cells
- living cells / cell death ([3]; listed as small peptide): resulted in cell death
